Measured values taken from PMC11636681, “Pharmacokinetics and pharmacodynamics of antibacterial peptide NZX in Staphylococcus aureus mastitis mouse model” (Applied Microbiology and Biotechnology, 2024).
Positions of bridges follow the written chain, without caps; N, C: chain ends. Residues, ends and D or L forms follow the SMILES beside them.

Legend:
S. aureus E48 [1] = test: Cell membrane permeability, PI staining by flow cytometry; assay type: cell-based, Staphylococcus aureus
Description: (§1) Flow cytometry was used for the analysis of the effects of NZX on the penetration rate of the S. aureus cell membrane (Yang et al. [2019]). The S. aureus cells in mid-log phase were adjusted to 1 × 10^8 CFU/mL and the bacteria suspensions were treated with 1 × , 2 × and 4 × MIC of NZX for 2 h at 37 °C. In addition, the cell suspensions were incubated with 2 × MIC of NZX for 0 h, 0.5 h, 1 h and 2 h, respectively. After incubation, the cells were centrifuged at 4000 rpm at 4 °C for 5 min, washed twice with sterile PBS, and pellets were resuspended in 1 mL of PBS. Next, cells were stained with 50 µg/mL propidium iodide (PI) for 30 min in the dark at room temperature, and the proportion of cells with PI positive cells to the total cells were analyzed by flow-cytometry (BD, USA). Lincomycin and ceftiofur were used as positive controls and PBS as negative control. Three replicates for each treatment were conducted.

S. aureus ATCC 25923 [2] = test: as above; assay type: cell-based, Staphylococcus aureus
Description: as §1

S. aureus E48 [3] = test: Mouse mastitis model, bacterial counts in mammary tissues; assay type: in vivo; details: 3 h post-infection, 24 h after treatment, vs PC group
Description: (§2) The 7 to 8-weeks old ICR mice (80 females, 40 males) were housed in independent ventilated cages, and feed with autoclaved laboratory food and water. Female mice in heat were put into the cage of males (females:males, 2:1) overnight and checked for vaginal plugs at the following morning to induce pregnancy. ICR-lactating mice were used at 6 to 8 days after the birth of the offspring. The mouse mastitis model was established as previously described (Li et al. [2017]). Mice were randomly divided into nine groups: NC group (uninfected group), PC group (infected but without treatment), NZX groups (25, 50, 100, 200 and 400 μg/gland, respectively), lincomycin group (100 μg/gland), and ceftiofur group (100 μg/gland). Each experimental group has six independent experiments with three mice. Specially, the pups were removed 1 h before the intramammary injection of both L4 (on the left) and R4 (on the right) abdominal mammal glands. A 100 μL of S. aureus strains (1 × 10^6 CFU/mL) was administrated to mice in PC, NZX, lincomycin and ceftiofur groups, and the same volume of sterile physiological saline was administrated to mice in NC group. Glands of 3 h post-infection were injected with sterile physiological saline, NZX, lincomycin, or ceftiofur. The mice were euthanized after the treatment for 24 h, and their mammary glands were dissected, weighed, and homogenized. The animal experiments were performed according to the Animal Care and Use Committee of the Feed Research Institute, Chinese Academy of Agricultural Sciences (Permit Number: AEC-CAAS-20090609) in accordance with the Guidelines for Animal Experimentation.
(§3) After mouse sacrifice, one part of mammary tissue was taken for bacterial count, and the other part was used for the histopathological analysis. Specifically, tissues were aseptically collected immediately from the dead mice, weighted, homogenized with sterile physiological saline (1:1, W:V). Next, the homogenates were serially diluted (ten-fold dilutions) in physiological saline, plated on MHA plate, and then cultured overnight at 37 °C. The bacterial number on each plate was counted and the results were expressed as Log10 CFU per gram of mammary tissues. In addition, mammary tissues were fixed in 4% paraformaldehyde, then embedded in paraffin, cut into 5 μm sections, and later stained by hematoxylin–eosin (H&E). The stained sections were observed under a light microscope (× 200) for pathological morphology and scoring of mammary tissues (Schmidt et al. [1992]).

S. aureus ATCC 25923 [4] = test: as above; assay type: in vivo; details: 24 h after treatment; for bacteria reduction in mammary tissues: vs PC group
Description: as §2, §3

S. aureus E48 [5] = test: Post antibiotic effect (PAE); assay type: cell-based, Staphylococcus aureus; details: 2 h exposure at 1 × to 8 × MIC, 1 × 10^8 CFU/mL, triplicate
Description: (§4) PAE was performed based on the method of Zhang et al. (Zhang et al. [2014]). S. aureus E48, S. aureus ATCC 25923 and S. aureus ATCC 43300 were cultured at 37 °C in MHB medium to the log-phase. Then, the diluted cells (1 × 10^8 CFU/mL) were exposed to NZX with final concentration of 1 × , 2 × , 4 × and 8 × MIC in the 48-well plates for 2 h at 37 °C. After incubation, NZX were removed by diluting 1:1000 with MHB medium. Viable counts were determined immediately after drug reconstruction and at 1–2 h interval for at least 10 h. PAE determination was calculated as PAE (h) = T-C, where T is the time (h) that required to increase by tenfold for the drug-treated viable count from the moment of drug reconstruction and C is the time (h) required to increase by tenfold for cell density without treatment. The experiments were conducted in triplication.

S. aureus ATCC 25923 [6] = test: Post antibiotic effect (PAE); assay type: cell-based, Staphylococcus aureus; details: 2 h exposure at 1 × to 8 × MIC, 1 × 10^8 CFU/mL, triplicate
Description: as §4

S. aureus E48 [7] = test: Mutant prevention concentration (MPC) on MHA plates; assay type: cell-based, Staphylococcus aureus; details: 1 × 10^10 CFU/mL, 37 °C, 72 h, each concentration three times
Description: (§5) Minimal Inhibitory Concentration (MIC), Minimal Bactericidal Concentration (MBC) and Mutant Prevention Concentration (MPC).
(§6) MPCs of NZX against the test S. aureus strain were determined as described by Plowgian et al., with some modification (Plowgian et al. [2019]). In brief, S. aureus cells were cultured to mid-log phase in Mueller–Hinton broth (MHB) medium. Then the suspensions were centrifuged (4000 rpm for 5 min) and the pellets were collected and diluted to a final concentration of 1 × 10^10 CFU/mL with MHB. […] All plates were incubated at 37 ^∘C for 72 h and the concentration corresponding to the plate with no bacterial growth was regarded as the provisional mutant prevention concentration (MPCpr). […] Lincomycin and ceftiofur were set as antibiotic controls, respectively. Each concentration was conducted three times.

S. aureus ATCC 25923 [8] = test: as above; assay type: cell-based, Staphylococcus aureus; details: 1 × 10^10 CFU/mL, 37 °C, 72 h, each concentration three times
Description: as §5, §6

[9] = 2 × MIC, range over 0, 0.5, 1 and 2 h
[10] = 2 h, range over 1 × MIC, 2 × MIC and 4 × MIC

SMILES	percentage of PI-positive cells (S. aureus E48 [1]; [9])	percentage of PI-positive cells (S. aureus E48 [1]; [10])	percentage of PI-positive cells (S. aureus ATCC 25923 [2]; [9])	percentage of PI-positive cells (S. aureus ATCC 25923 [2]; [10])	bacteria reduction in mammary tissues (S. aureus E48 [3]; 100 μg/gland intramammary) [Log10 CFU/g]	bacteria reduction in mammary tissues (S. aureus ATCC 25923 [4]; 100 μg/gland intramammary) [Log10 CFU/g]	mean PAE range (S. aureus E48 [5]) [h]	mean PAE range (S. aureus ATCC 25923 [6]) [h]	MPC (S. aureus E48 [7]) [µM]	MPC (S. aureus ATCC 25923 [8]) [µM]	bacteria reduction in mammary tissues (S. aureus E48 [3]; range over 25 ~ 400 μg/gland intramammary)	bacterial loads in mammary tissues (S. aureus ATCC 25923 [4]; 400 μg/gland intramammary)	bacteria reduction in mammary tissues (S. aureus ATCC 25923 [4]; range over 25–400 μg/gland intramammary)
CO/N=C(\C(=O)N[C@@H]1C(=O)N2C(C(=O)O)=C(CSC(=O)c3ccco3)CS[C@H]12)c1csc(N)n1 [Ceftiofur]	2.61–23.53%	8.56–21.1%	1.35–4.31%	1.55–3.42%	5.70	6.99	1.30 to 2.10	1.40 to 2.29	5.49	234.24			
CCC[C@@H]1C[C@@H](C(=O)N[C@@H]([C@H]2O[C@H](SC)[C@H](O)[C@@H](O)[C@H]2O)[C@@H](C)O)N(C)C1 [Lincomycin]	0.13–2.61%	0.08 to 0.09%		0.45 to 0.63%	7.37	5.23	2.02 to 3.27	0.94 to 1.52	> 1111.04	> 1111.04			
CC[C@H](C)[C@@H]1NC(=O)[C@H](CO)NC(=O)[C@H](CCCCN)NC(=O)[C@@H]2CSSC[C@@H](C(=O)N[C@@H](Cc3ccc(O)cc3)C(=O)O)NC(=O)[C@H](CCCCN)NC(=O)[C@@H]3CSSC[C@H](NC(=O)[C@H](CCC(N)=O)NC(=O)[C@H]([C@@H](C)CC)NC(=O)[C@H](CC(=O)O)NC(=O)[C@H](CC(=O)O)NC(=O)[C@H](CCC(=O)O)NC(=O)[C@H](CO)NC(=O)[C@H](Cc4c[nH]c5ccccc45)NC(=O)[C@@H]4CCCN4C(=O)CNC(=O)[C@H](CC(N)=O)NC(=O)[C@@H](NC(=O)CNC(=O)[C@H](Cc4ccccc4)NC(=O)CN)CSSC[C@H](NC(=O)[C@H](Cc4ccc(O)cc4)NC(=O)CNC(=O)CNC(=O)[C@H](CCCCN)NC(=O)[C@H](Cc4ccc(O)cc4)NC(=O)CNC(=O)[C@H](CCCCN)NC1=O)C(=O)N[C@@H](C)C(=O)N[C@@H](CCCNC(=N)N)C(=O)NCC(=O)NCC(=O)N[C@@H](Cc1ccccc1)C(=O)N[C@@H](C(C)C)C(=O)N3)C(=O)N[C@@H](Cc1c[nH]cn1)C(=O)N[C@@H](CC(N)=O)C(=O)N[C@@H](Cc1c[nH]cn1)C(=O)N2 [NZX] (H-GFGCNGPWSEDDIQCHNHCKSIKGYKGGYCARGGFVCKCY-OH; disulfide 4-30, 15-37, 19-39; N-terminus and C-terminus assumed)	2.61 to 72.93%	25.6–70.3%	1.93 to 54.06%	12.9–48.0%	8.34	4.73	1.14 to 3.60	1.67 to 3.34	1.47	3.68	0.77–8.34 Log10 CFU/g	eliminated	3.35–11.09 Log10 CFU/g
